# Results taken from US20250340540A1, “Crystal Forms Of HS378 And Preparation Method Therefor” (priority 2022, published 2025).
# Like-named read-outs stand apart in the source and are kept apart here.
# How the values were obtained:
# [1] = format: physicochemical; conditions: for Changes of HPLC purity over 10 days: 10 days vs 0 day; for Stability of crystal form and HPLC data: 10 days
# Experimental: The X-ray powder diffraction instrument and test conditions involved in the present disclosure were as follows: X-ray diffraction instrument model MiniFlex600Cu target; operation method: scanning speed 20°/min, scanning step width 0.02°. The liquid phase test conditions involved in the present disclosure were as follows: chromatographic column: Agilent Zorbax SB-18, 150×4.6 mm, 5 μm; mobile phase A: 0.1% phosphoric acid aqueous solution; mobile phase B: acetonitrile; detection wavelength: 205 nm; flow rate: 1.0 ml/min; injection volume: 5 μl; column temperature: […]. The samples of crystal form A obtained in Example 1, the crystal form B obtained in Example 5 of the present disclosure, and the crystal forms 1, 2, 4, and 5 obtained in Preparation Example were placed at 60° C. for 5 days and 10 days, respectively, and subjected to HPLC and XRD detection, respectively.
# [2] = Microscope photographs: crystal habit and particle fluidity; format: physicochemical; conditions: judged from microscope photographs
# Excerpt: Microscope photographs of the samples of the crystal form A obtained in Example 1, the crystal form B obtained in Example 5 of the present disclosure, and the crystal forms 1, 2, 4, and 5 obtained in Preparation Example are shown in FIGS. 7-12, respectively.
# [3] = human, in vivo; cited from earlier work
# [4] = 0 Day, before placing at 60° C.
SMILES,"HPLC purity (%) [1, 4] [%]","HPLC purity (%) ([1]; 60° C., 5 Days)","HPLC purity (%) ([1]; 60° C., 10 Days)",Changes of HPLC purity over 10 days ([1]; 60° C.),Particle fluidity [2],Oral plasma concentration [3],Stability of crystal form and HPLC data [1]
CC(C)(C)[C@H](NC(=O)C(F)(F)F)C(=O)N1C[C@H]2[C@@H]([C@H]1C(=O)N[C@H](C#N)C[C@@H]1CCNC1=O)C2(C)C [Crystal form 2],93.83,93.71,93.52,−0.31,poor fluidity,,
"CC(C)(C)[C@H](NC(=O)C(F)(F)F)C(=O)N1C[C@H]2[C@@H]([C@H]1C(=O)N[C@H](C#N)C[C@@H]1CCNC1=O)C2(C)C [HS378, (1R, 2S, 5S)-N-{(1S)-1-cyano-2-[(3S)-2-oxopyrrolidin-3-yl]-ethyl}-6,6-dimethyl-3-[3-methyl-N-(trifluoroacetyl)-L-valyl]-3-azabicyclo [3.1.0]hexane-2-carboxamide]",,,,,,exceeding in vitro antiviral cell efficacy,
CC(C)(C)[C@H](NC(=O)C(F)(F)F)C(=O)N1C[C@H]2[C@@H]([C@H]1C(=O)N[C@H](C#N)C[C@@H]1CCNC1=O)C2(C)C [Crystal form 4],93.31,93.26,93.14,−0.17,,,
CC(C)(C)[C@H](NC(=O)C(F)(F)F)C(=O)N1C[C@H]2[C@@H]([C@H]1C(=O)N[C@H](C#N)C[C@@H]1CCNC1=O)C2(C)C [Crystal form 1],95.34,95.34,95.31,−0.03,poor fluidity,,"more stable than crystal form 2, crystal form 4 and crystal form 5"
CC(C)(C)[C@H](NC(=O)C(F)(F)F)C(=O)N1C[C@H]2[C@@H]([C@H]1C(=O)N[C@H](C#N)C[C@@H]1CCNC1=O)C2(C)C [Crystal form 5],91.23,91.05,90.79,−0.44,poor fluidity,,
CC(C)(C)[C@H](NC(=O)C(F)(F)F)C(=O)N1C[C@H]2[C@@H]([C@H]1C(=O)N[C@H](C#N)C[C@@H]1CCNC1=O)C2(C)C [Crystal form B],99.57,99.56,99.54,−0.03,good in particle fluidity,,"more stable than crystal form 2, crystal form 4 and crystal form 5"
CC(C)(C)[C@H](NC(=O)C(F)(F)F)C(=O)N1C[C@H]2[C@@H]([C@H]1C(=O)N[C@H](C#N)C[C@@H]1CCNC1=O)C2(C)C [Crystal form A],99.86,99.86,99.85,−0.01,good in particle fluidity,,"more stable than crystal form 2, crystal form 4 and crystal form 5"
